Data: ChEMBL document CHEMBL4651402, “Screening of ~5500 FDA-approved drugs and clinical candidates for anti-SARS-CoV-2 activity” (2021)

Tests used:
[1] = tested on: SARS-CoV-2; conditions: vero c1008
[2] = tested on: SARS-CoV-2; assay: microbe, parasite or virus in culture; type: functional, organism-based, Chlorocebus sabaeus, Vero C1008; conditions: Severe acute respiratory syndrome coronavirus 2, Vero C1008, 48 h
[3] = in vitro; conditions: chlorocebus sabaeus
[4] = tested on: SARS-CoV-2; assay: microbe, parasite or virus in culture; conditions: Severe acute respiratory syndrome coronavirus 2, Vero C1008, 48 h
[5] = Vero E6 (Vero C1008) cells, CC50
[6] = Vero E6 (Vero C1008) cells, pCC50

Compound | pIC50 [1] | IC50 [1] [µM] | IC50 ([2]; read-out: IC50) [µM] | IC50 ([2]; read-out: pIC50 (converted)) [µM] | CC50 at 48 h [3, 5] [µM] | CC50 at 48 h [3, 6] [µM] | IC50 [4] [µM] | IC50 ([4]; read-out: pIC50 (converted)) [µM] | CC50 at 48 h ([3]; vero c1008, CC50) [µM] | CC50 at 48 h ([3]; vero c1008, pCC50) [µM]
CNCC(O)C(O)C(O)C(O)CO.Cc1c(Nc2ncccc2C(=O)O)cccc1C(F)(F)F | < 4.7 | – | – | – | – | – | – | – | – | –
CC(C)(NC(=O)O[C@@H]1CN2CCC1CC2)c1csc(-c2ccc(F)cc2)n1 | < 4.7 | > 20 | – | – | – | – | – | – | – | –
CC[C@@H]([C@H](C)O)n1ncn(-c2ccc(N3CCN(c4ccc(OC[C@@H]5CO[C@@](Cn6cncn6)(c6ccc(F)cc6F)C5)cc4)CC3)cc2)c1=O [POSACONAZOLE] | – | – | > 100 | > 100 | > 100 | > 100 | > 100 | > 100 | – | –
CCCC(C(=O)OCCN(CC)CC)(c1ccccc1)c1ccccc1 [PROADIFEN] | – | – | > 100 | > 100 | 24 | 24 | 5.13 | 5.13 | – | –
Nc1ccc2cc3ccc(N)cc3nc2c1 [PROFLAVINE] | – | – | > 25.1 | > 25.1 | ~6.61 | ~6.61 | ~15 | ~14.8 | – | –
CN(C)CCCN1c2ccccc2Sc2ccccc21 [PROMAZINE] | – | – | > 100 | > 100 | 25.7 | 25.7 | 16.2 | 16.2 | – | –
CC(CN1c2ccccc2Sc2ccccc21)N(C)C (stereo not given) [PROMETHAZINE] | – | – | > 100 | > 100 | 33.1 | 33.1 | 21.9 | 21.9 | – | –
CCCOc1ccc(C(=O)CCN2CCCCC2)cc1 [PROPIPOCAINE] | – | – | > 100 | > 100 | 31.6 | 31.6 | > 100 | > 100 | – | –
CNCCCC1c2ccccc2C=Cc2ccccc21 [PROTRIPTYLINE] | – | – | > 100 | > 100 | – | – | > 100 | > 100 | 26.3 | 26.3
CCCCCCC(C)(C)c1cc(O)c([C@H]2CC(=O)[C@H]3C[C@@H]2C3(C)C)c(OC(=O)/C=C/C(=O)O)c1 [PRS-211375] | – | – | > 50.1 | > 50.1 | 7.67 | 7.59 | > 100 | > 100 | – | –
COC(=O)[C@H]1[C@H]2C[C@@H]3c4[nH]c5cc(OC)ccc5c4CCN3C[C@H]2C[C@@H](OC(=O)c2cc(OC)c(OC)c(OC)c2)[C@@H]1OC [RESERPINE] | – | – | > 50.1 | > 50.1 | ~11 | ~11 | > 25.1 | > 25.1 | – | –
Cc1nc(Nc2ccc(F)cc2)nc(N2CCc3ccccc3C2C)c1C (stereo not given) [REVAPRAZAN] | – | – | 10.5 | 10.5 | 11.5 | 11.5 | > 100 | > 100 | – | –
CN(C)C(=O)c1cc2cnc(Nc3ccc(N4CCNCC4)cn3)nc2n1C1CCCC1 [RIBOCICLIB] | – | – | > 100 | > 100 | 38.9 | 38.9 | > 100 | > 100 | – | –
Cc1cc2nc3c(=O)[nH]c(=O)nc-3n(C[C@H](O)[C@H](O)[C@H](O)CO)c2cc1C [RIBOFLAVIN] | – | – | > 50.1 | > 50.1 | > 50.1 | > 50.1 | ~11.2 | ~11.2 | – | –
OCc1cc(C(O)CNCCCCCCOCCCCc2ccccc2)ccc1O (stereo not given) [SALMETEROL] | – | – | > 100 | > 100 | 18.6 | 18.6 | 19.1 | 19.1 | – | –
CCC(C)n1ncn(-c2ccc(N3CCN(c4ccc(OC[C@H]5CO[C@](Cn6cncn6)(c6ccc(F)cc6F)O5)cc4)CC3)cc2)c1=O (stereo not given in full) [SAPERCONAZOLE] | – | – | > 100 | > 100 | > 100 | > 100 | > 100 | > 100 | – | –
Cc1ccc(C(=O)N(CCCN)[C@@H](c2oc3cc(Cl)ccc3c(=O)c2Cc2ccccc2)C(C)C)cc1 [SB-743921] | – | – | > 50.1 | > 50.1 | 2.63 | 2.63 | > 50.1 | > 50.1 | – | –
Cc1nc2ccccn2c(=O)c1CCN1CCC(=C(c2ccc(F)cc2)c2ccc(F)cc2)CC1 [SEGANSERIN] | – | – | > 100 | > 100 | 10.2 | 10.2 | 7.59 | 7.59 | – | –
CCN(CC)CCNC(=O)c1ccc(NS(C)(=O)=O)cc1 [SEMATILIDE] | – | – | > 100 | > 100 | > 100 | > 100 | 3.89 | 3.89 | – | –
